According to patent US4962113A, “Pyridinium derivatives, their production and use” (Takeda Chemical Industries, Ltd, priority 1987, dated 1990):
Read-outs that look alike come from different tables or passages of the source.

Legend:
[1] = test system: PAF-induced bronchoconstriction; test: PAF inhibitory action in bronchoconstriction; assay type: in vivo, guinea pig (Hartley); settings: oral, 30 mg/kg, one hour before PAF (0.3 μg/kg i.v.)
Method: Female and male Hartley guinea pigs weighing about 400 g were fixed on the dorsal position under anesthesia with an ethylcarbamate (1.5 g/kg, intraperitoneally). One leg of a cannula (4 legs) was inserted into the trachea, and two of the remaining three legs were connected to an artificial respirator (Harvard apparatus rodent respirator). The remaining one leg (side tube) was connected to a bronchospasm transducer 7020 (Ugobasile).
While the air volume per ventilation was adjusted to 5 to 7 ml and the air ventilation rate was controlled at 70 times/min., with a load pressure to the lung set at 10 cm H2 O, the overflown air volume was recorded on Rectigraph (Rectigraph-8S, San-ei Seiki Inc.) through a transducer. After 1 mg/kg of gallamine triethodide was given intravenously to the animals, histamine dihydrochloride (10 μg/kg) was applied intravenously to examine reaction of the animals. PAF(0.3 μg/kg) was administered intravenously, and, 30 sec. later, maximum bronchoconstriction was observed. Under these conditions, bronchoconstriction activity of the test samples was examined. The test sample was suspended in a 5% gum arabic solution, and given orally one hour before the administration of PAF. The compounds obtained in Production Examples 3 and 4 inhibited PAF-induced bronchoconstriction by oral administration (30 mg/kg).

[2] = test system: platelet aggregation (PAF); test: Inhibitory action on PAF-induced rabbit platelet aggregation; assay type: cell-based; settings: Oryctolagus cuniculus, read-out: inhibitory percentage (platelet aggregation); for inhibition at 3 µM: 3 × 10^-6 M; for inhibition at 0.3 µM: 3 × 10^-7 M; for inhibition at 0.03 µM: 3 × 10^-8 M
Method: Blood was collected directly from the hearts of male rabbits using a syringe containing, as an anticoagulant, 3.15% citric acid (one part to 9 parts of blood). The blood was subjected to centrifuge at 800 rpm for ten minutes at room temperature to obtain platelet rich plasma (PRP). The remaining blood was further subjected to centrifuge at 3000 rpm for ten minnutes to separate platelet poor plasma (PPP) as the supernatant. PRP was diluted with PPP, and the number of platelets was adjusted to about 500,000/ μl. This PRP(250 μl) was stirred for two minutes at 37° C., and there was added a test sample, and the mixture was stirred for further two minutes, followed by addition of PAF of a given concentration. Platelet aggregation was examined by means of a platelet-agglutometer (manufactured by Rika Denki). Platelet aggregation preventing action of the test sample was determined based on the maximum percent light transmission (maximum percent. agglutination).

PAF-induced hypotension = test: Inhibitory action on PAF-induced hypotension in rats; assay type: in vivo, rat (Sprague-Dawley); settings: Rattus norvegicus, read-out: Inhibitory Rate (Lowering of Blood Pressure); for inhibition in vivo at 0.01 mg/kg / inhibition in vivo at 0.03 mg/kg / inhibition in vivo at 0.1 mg/kg: iv; for inhibition in vivo at 1 mg/kg / inhibition in vivo at 3 mg/kg: oral
Method: Sprague-Dawley male rats, each weighing about 250 g, were subjected to the experiment. The rats were cannulated on the side of femoral artery for measuring the blood pressure, and on the side of femoral vein for administering the drug. The blood pressure was measured through a pressure transducer and recorded. First, PAF (1 μg/kg) was administered intravenously (i.v.) to examine the extent of lowering of blood pressure. Then, the test samples were administered intravenously or orally. […]
The inhibitory action on PAF-induced hypotension (% inhibition) is indicated as the ratio of blood pressure-lowering degree (Δ mmHg) induced by PAF after administration of test samples relative to blood pressure-lowering degree (Δ mmHg) induced by PAF before administration of test samples.

Acute Toxicity Test = assay type: in vivo; settings: oral, 1000 mg/kg, until after one week
Method: Male Jcl-ICR mice (5 wk) were used in groups of five individuals. The animals of the respective groups were orally administered with the compounds (227), (236) and (303) respectively produced in Production Examples 87, 90 and 109 at the dose of 1000 mg/kg.

SMILES	inhibition of PAF-induced bronchoconstriction [1] [%]	inhibition at 3 µM [2] [%]	inhibition at 0.3 µM [2] [%]	inhibition at 0.03 µM [2] [%]	inhibition in vivo at 0.01 mg/kg (PAF-induced hypotension; 1 hr.) [%]	inhibition in vivo at 0.01 mg/kg (PAF-induced hypotension; 2 hr.) [%]	inhibition in vivo at 0.01 mg/kg (PAF-induced hypotension; 4 hr.) [%]	inhibition in vivo at 0.01 mg/kg (PAF-induced hypotension; 6 hr.) [%]	inhibition in vivo at 0.01 mg/kg (PAF-induced hypotension; 8 hr.) [%]	inhibition in vivo at 1 mg/kg (PAF-induced hypotension; 1 hr.) [%]	inhibition in vivo at 1 mg/kg (PAF-induced hypotension; 2 hr.) [%]	inhibition in vivo at 1 mg/kg (PAF-induced hypotension; 4 hr.) [%]	inhibition in vivo at 1 mg/kg (PAF-induced hypotension; 6 hr.) [%]	inhibition in vivo at 1 mg/kg (PAF-induced hypotension; 8 hr.) [%]	inhibition in vivo at 3 mg/kg (PAF-induced hypotension; 1 hr.) [%]	inhibition in vivo at 3 mg/kg (PAF-induced hypotension; 2 hr.) [%]	inhibition in vivo at 3 mg/kg (PAF-induced hypotension; 4 hr.) [%]	inhibition in vivo at 3 mg/kg (PAF-induced hypotension; 6 hr.) [%]	inhibition in vivo at 3 mg/kg (PAF-induced hypotension; 8 hr.) [%]	death of mice (Acute Toxicity Test)	other results
CCCCCCCCCCCCCCCCCCNC(=O)OCC(COC(=O)NCCN(C(=O)c1cc(Br)c[n+](CC)c1)c1ccccc1)OC (centres unmarked) [Production Example 3, 5-bromo-3-[N-[2-(2-methoxy-3-octadecylcarbamoyloxyproxycarbonyl)]aminoethyl-N-phenyl]carbamoyl-1-ethyl pyridinium iodide]	64.9	–	–	–	–	–	–	–	–	–	–	–	–	–	–	–	–	–	–	–	–
CCCCCCCCCCCCOCCOCCOC(=O)NCCN(C(=O)c1cc(Br)c[n+](CC)c1)c1ccccc1 [Production Example 4, 5-bromo-3-[N-[2-[2-(2-dodecyloxyethoxy)ethoxycarbonyl]]aminoethyl-N-phenyl]carbamoyl-1-ethylpyridinium iodide]	59.9	100	100	100	–	–	–	–	–	–	–	–	–	–	–	–	–	–	–	–	–
CCC[n+]1cc(Br)cc(C(=O)N(CCC(=O)NCCOC(=O)N2CCc3ccccc3C2)c2ccccc2)c1 [Production Example 87, 5-Bromo-3-[N-[2-[[2-(1,2,3,4-tetrahydroisoquinolyl)carbonyloxy]ethyl]carbamoyl]ethyl-N-phenyl]carbamoyl-1-propylpyridinium chloride]	–	100	100	49	64	51	41	30	23	57	76	86	74	63	100	97	99	93	88	No death of mice was observed	inhibition in vivo at 0.01 mg/kg (PAF-induced hypotension; 5 min, i.v., 5 min.): 91%
CCC[n+]1cc(Br)cc(C(=O)N(CCC(=O)NCCOC(=O)Nc2cccc3ccccc23)c2ccccc2)c1 [Production Example 90, 5-bromo-3-[N-[2-[2-(1-naphthylcarbamoyloxy)ethyl]carbamoyl]ethyl-N-phenyl]carbamoyl-1-propylpyridinium chloride]	–	100	100	16	58	36	17	10	1	69	68	78	71	60	96	99	94	87	81	No death of mice was observed	inhibition in vivo at 0.03 mg/kg (PAF-induced hypotension; 1 hr.): 83%; inhibition in vivo at 0.03 mg/kg (PAF-induced hypotension; 2 hr.): 64%; inhibition in vivo at 0.03 mg/kg (PAF-induced hypotension; 4 hr.): 51%; inhibition in vivo at 0.03 mg/kg (PAF-induced hypotension; 6 hr.): 36%; inhibition in vivo at 0.03 mg/kg (PAF-induced hypotension; 8 hr.): 23%; inhibition in vivo at 0.01 mg/kg (PAF-induced hypotension; 5 min, i.v., 5 min.): 69%; inhibition in vivo at 0.03 mg/kg (PAF-induced hypotension; 5 min, i.v., 5 min.): 100%
CCC[n+]1cc(Br)cc(C(=O)N(CCC(=O)NCCNS(=O)(=O)c2cccc3ccccc23)c2ccccc2)c1 [Production Example 109, 5-Bromo-3-[N-[2-[2-(1-naphthylsulfonamide)ethyl]carbamoyl]-ethyl-N-phenyl]carbamoyl-1-propylpyridinium chloride]	–	100	100	26	–	–	–	–	–	56	65	64	54	48	95	97	97	92	80	No death of mice was observed	inhibition in vivo at 0.1 mg/kg (PAF-induced hypotension; 1 hr.): 100%; inhibition in vivo at 0.1 mg/kg (PAF-induced hypotension; 2 hr.): 97%; inhibition in vivo at 0.1 mg/kg (PAF-induced hypotension; 4 hr.): 71%; inhibition in vivo at 0.1 mg/kg (PAF-induced hypotension; 6 hr.): 50%; inhibition in vivo at 0.1 mg/kg (PAF-induced hypotension; 8 hr.): 46%; inhibition in vivo at 0.1 mg/kg (PAF-induced hypotension; 5 min, i.v., 5 min.): 100%
